Measurements reported in paper PMC3073714 (Chemistry and physics of lipids, 2010).

Target: T1, DNA topoisomerase IB (LdTopIB) (Leishmania donovani, UniProt A0A3Q8IHS4+Q8WQM6)
T1 sequence (A0A3Q8IHS4 1-635): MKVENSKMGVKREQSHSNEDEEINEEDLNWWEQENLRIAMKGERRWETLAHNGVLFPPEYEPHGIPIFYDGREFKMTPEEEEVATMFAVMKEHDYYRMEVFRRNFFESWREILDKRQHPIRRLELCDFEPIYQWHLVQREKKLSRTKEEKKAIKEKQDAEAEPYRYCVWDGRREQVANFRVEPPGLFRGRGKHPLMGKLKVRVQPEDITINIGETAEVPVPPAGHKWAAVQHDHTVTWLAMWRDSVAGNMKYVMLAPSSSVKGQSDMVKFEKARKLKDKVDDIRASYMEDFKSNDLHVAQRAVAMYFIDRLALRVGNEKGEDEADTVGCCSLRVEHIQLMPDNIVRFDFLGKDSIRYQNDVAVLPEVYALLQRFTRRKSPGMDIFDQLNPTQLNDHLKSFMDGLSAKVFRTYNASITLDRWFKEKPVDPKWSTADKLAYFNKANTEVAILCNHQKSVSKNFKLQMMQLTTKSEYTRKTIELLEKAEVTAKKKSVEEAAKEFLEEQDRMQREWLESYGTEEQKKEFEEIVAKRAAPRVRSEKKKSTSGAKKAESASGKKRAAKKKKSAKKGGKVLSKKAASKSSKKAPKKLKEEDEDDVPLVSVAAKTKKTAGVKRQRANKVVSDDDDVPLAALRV
T1 sequence (Q8WQM6 1-262): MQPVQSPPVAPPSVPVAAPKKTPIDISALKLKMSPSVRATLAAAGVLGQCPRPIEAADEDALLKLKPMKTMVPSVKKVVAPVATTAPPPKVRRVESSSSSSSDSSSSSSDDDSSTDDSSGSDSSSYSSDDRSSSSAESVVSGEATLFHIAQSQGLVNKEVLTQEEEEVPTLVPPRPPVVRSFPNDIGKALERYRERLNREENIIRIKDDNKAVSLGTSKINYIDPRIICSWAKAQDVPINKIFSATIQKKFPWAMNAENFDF
Assay: supercoiled plasmid DNA relaxation assay with purified recombinant enzyme
Format: biochemical

SMILES: CC(C)CCC/C=C\CCCCCCCCCC(=O)O [compound 1, (Z)-16-methyl-11-heptadecenoic acid]
- IC50: 62.3 ± 0.7 µM
